This is an account of results in ChEMBL document CHEMBL4622963, “Optimization of Nicotinamides as Potent and Selective IRAK4 Inhibitors with Efficacy in a Murine Model of Psoriasis” (ACS Med Chem Lett, 2020).

The nature of series [1]: Stability in mouse liver microsomes assessed as parent compound remaining measured after 10 mins. It counts as ADME, Microsome. Particulars: read-out: Stability.
Series [2] is filed under the species Homo sapiens. In words: Selectivity index, ratio of IC50 for N-terminal His6-tagged human full length recombinant LCK expressed in baculovirus infected Sf21 cells to IC50 for IRAK4 (unknown origin).
A short description of series [3]: Stability in human liver microsomes assessed as parent compound remaining. It is filed as ADME, Microsome.
Series [4] addresses T1, Interleukin-1 receptor-associated kinase 4 (Homo sapiens, UniProt Q9NWZ3).
T1 sequence (Q9NWZ3 whole entry): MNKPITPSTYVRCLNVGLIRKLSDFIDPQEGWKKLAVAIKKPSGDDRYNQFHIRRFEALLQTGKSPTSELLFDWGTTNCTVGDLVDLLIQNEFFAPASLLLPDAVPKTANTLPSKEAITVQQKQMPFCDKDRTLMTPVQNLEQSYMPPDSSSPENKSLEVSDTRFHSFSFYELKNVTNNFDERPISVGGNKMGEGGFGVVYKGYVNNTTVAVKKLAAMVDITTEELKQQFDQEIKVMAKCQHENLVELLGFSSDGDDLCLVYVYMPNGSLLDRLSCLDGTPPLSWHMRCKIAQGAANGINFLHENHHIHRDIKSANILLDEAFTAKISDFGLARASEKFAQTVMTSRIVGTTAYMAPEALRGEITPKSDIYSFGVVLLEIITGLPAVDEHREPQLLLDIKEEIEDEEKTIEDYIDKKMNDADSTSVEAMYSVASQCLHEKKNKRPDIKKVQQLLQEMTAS
In words: Inhibition of IRAK4 in human PBMC assessed as inhibition of LTA-induced IL-6 production preincubated for 30 mins followed by LTA-stimulation and measured after 5 hrs by ELISA. It is filed as cell-based.

Series [5] addresses T1, Interleukin-1 receptor-associated kinase 4. In words: Inhibition of IRAK4 (unknown origin) using FL-IPTSPITTTYFFFKKK peptide and ATP as substrate incubated for 60 mins by fluorescence based caliper assay.
Series [6] shares this target. In words: Inhibition of IRAK4 in human whole blood assessed as inhibition of LTA-induced IL-6 production preincubated for 30 mins followed by LTA-stimulation and measured after 5 hrs by ELISA. It counts as tissue-based.
For series [7], the species on record is Homo sapiens. In words: Selectivity index, ratio of IC50 for recombinant N-terminal GST-tagged human cKit (544 to end residues) expressed in baculovirus infected Sf21 cells to IC50 for IRAK4 (unknown origin).
For series [8], the system named is Mus musculus. In words: Protection against imiquimod-induced psoriasis in C57BL/6 mouse assessed as inhibition of skin erythema level at 3 mg/kg, po dosed via gavage once daily and measured on day 6 relative to control. It counts as functional. The note with it: C57BL/6, po, 144 h.
Series [9] deals with Mus musculus. In words: Protection against imiquimod-induced psoriasis in C57BL/6 mouse assessed as inhibition of skin scaling at 3 mg/kg, po dosed via gavage once daily and measured on day 6 relative to control. It counts as functional. The note with it: C57BL/6, po, 144 h.
Series [10] can be described thus: Permeability across apical to basolateral side in human Caco2 cells. The note with it: Caco-2.
Another series has as its target Cytochrome P450 3A4 (Homo sapiens, UniProt P08684). As to the kind of experiment: Inhibition of CYP3A4 (unknown origin). It counts as ADME.
Series [11] in a line: Oral bioavailability in mouse at 3 mg/kg administered via gavage measured up to 24 hrs by LC-MS analysis. It counts as ADME, organism-based. Particulars: in vivo.
Series [12] is described as follows: Half life in mouse at 2 mg/kg, iv administered as infusion or 3 mg/kg, po via gavage measured up to 24 hrs by LC-MS analysis. It counts as ADME, organism-based. Particulars: in vivo.
Series [13] is described as follows: AUC in mouse at 3 mg/kg, po via gavage measured up to 24 hrs by LC-MS analysis. It counts as ADME, organism-based. On the set-up: dose 3 mg/kg, time < 24 hr, route oral. The note with it: in vivo.
Series [14] can be described thus: Volume of distribution at steady state in mouse at 2 mg/kg, iv administered as infusion or 3 mg/kg, po via gavage measured up to 24 hrs by LC-MS analysis. It counts as ADME, organism-based. Particulars: in vivo, read-out: Vdss.
Series [15] can be described thus: Clearance in mouse at 2 mg/kg, iv administered as infusion or 3 mg/kg, po via gavage measured up to 24 hrs by LC-MS analysis. It counts as ADME, organism-based. Particulars: in vivo.
Series [16] can be described thus: AUC in mouse at 2 mg/kg, iv administered as infusion measured up to 24 hrs by LC-MS analysis. On the set-up: time < 24 hr, dose 2 mg/kg, route intravenous. The note with it: in vivo. It counts as ADME, organism-based.

Sequence of Cytochrome P450 3A4 (P08684 whole entry): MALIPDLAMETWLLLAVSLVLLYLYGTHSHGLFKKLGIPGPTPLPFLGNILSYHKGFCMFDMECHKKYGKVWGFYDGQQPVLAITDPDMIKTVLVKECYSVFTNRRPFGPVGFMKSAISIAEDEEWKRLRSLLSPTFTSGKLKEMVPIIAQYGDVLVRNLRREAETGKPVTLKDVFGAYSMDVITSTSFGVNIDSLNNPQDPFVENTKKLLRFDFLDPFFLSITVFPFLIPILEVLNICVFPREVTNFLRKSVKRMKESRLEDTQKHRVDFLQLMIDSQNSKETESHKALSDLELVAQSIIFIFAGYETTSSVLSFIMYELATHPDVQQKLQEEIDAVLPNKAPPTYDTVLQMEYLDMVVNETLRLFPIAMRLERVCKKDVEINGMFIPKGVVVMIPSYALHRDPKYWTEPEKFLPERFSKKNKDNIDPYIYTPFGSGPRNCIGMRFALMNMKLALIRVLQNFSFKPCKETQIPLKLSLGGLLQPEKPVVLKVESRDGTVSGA

As to `CC(C)Nc1cc(Nc2ccc3ncsc3c2)ncc1C(=O)NCCCO`, the remaining at 10 min in series [1] worked out at 87%. For the same compound, the Ratio IC50 in the series listed under Homo sapiens [2] was 16. For the same compound, the Stability in series [3] was determined as 84%. Also, the IC50 was 6.9 µM in series [4] and 0.024 µM in [5].

For `CCCNC(=O)c1cnc(Nc2ccc3ncsc3c2)cc1NC(C)C`, the remaining at 10 min in series [1] came out at 32%. In [3], the Stability was 52%. Besides, the IC50 in series [5] turned out to be 0.012 µM.

On to `CC(C)Nc1cc(Nc2ccc3ncsc3c2)ncc1C(=O)NC[C@@H](F)C(C)(C)O`, for which, in [1], the remaining at 10 min worked out at 86%. Also, the Ratio IC50 in the series listed under Homo sapiens [2] turned out to be 270. In [3], the Stability was found to be 92%. In addition, the IC50 in series [4] worked out at 0.48 µM; in [5], 0.0024 µM; in series [6] it was 2 µM.

Consider `CC(C)Nc1cc(Nc2ccc3nsnc3c2)ncc1C(=O)NC[C@@H](F)C(C)(C)O`, for which the remaining at 10 min in series [1] worked out at 80%. In addition, the Ratio IC50 is greater than 15000 in the series filed under Homo sapiens [7] and 93 in the series listed under Homo sapiens [2]. The Stability in [3] was 74%. For the same compound, the IC50 in [4] came out at 0.32 µM; in series [6] it was 1.16 µM.

Take `CC(C)(O)CCNC(=O)c1cnc(Nc2ccc3ncsc3c2)cc1NC1CC1`: the remaining at 10 min in [1] was 99%. The Ratio IC50 in the series listed under Homo sapiens [2] amounted to 200. For the same compound, in [3], the Stability came to 65%. Moreover, the figures for the IC50 in [4] and in series [6] were 0.29 µM and 0.9 µM, respectively.

On to `C[C@@H]1C[C@H]2[C@@H]3CCC4=CC(=O)C=C[C@]4(C)[C@@]3(F)[C@@H](O)C[C@]2(C)[C@@]1(O)C(=O)CO` [DEXAMETHASONE], for which the inhibition in vivo at 3 mg/kg in the series with Mus musculus [8] was found to be 37%; with Mus musculus [9], 45%.

As to `Cc1nc2ccc(Nc3cc(NC(C)C)c(C(=O)NC[C@@H](F)C(C)(C)O)cn3)cc2s1`, in series [1], the remaining at 10 min was found to be 78%. Moreover, the Ratio IC50 in the series filed under Homo sapiens [7] stood at 6200; in the series filed under Homo sapiens [2], 3500. The Stability in [3] amounted to 92%. The IC50 was 1.7 µM in series [4], 0.008 µM in [5] and 12 µM in [6].

As for `CNC(=O)c1cnc(Nc2ccc3ncsc3c2)cc1N[C@@H](c1ccccc1)[C@H](O)CO`, in [1], the remaining at 10 min was found to be 22%. Also, in [3], the Stability is given as 90%. Also, in series [10], the Papp A→B is less than 1.5 ×10⁻⁶ cm/s.

In the case of `CCCCNC(=O)c1cnc(Nc2ccc3ncsc3c2)cc1NC(C)C`, the remaining at 10 min in series [1] was 31%. Besides, the Stability in series [3] was 55%. In [5], this compound returned an IC50 of 0.007 µM.

For `CC(C)Nc1cc(Nc2ccc3ncsc3c2)ncc1C(=O)NC[C@@H](C)C(C)(C)O`, the IC50 in series [4] was determined as 2.9 µM; in series [5] it was 0.019 µM.

As for `CC(C)Nc1cc(Nc2ccc3ncsc3c2)ncc1C(=O)NCC(F)(F)C(C)(C)O`, the remaining at 10 min in series [1] stood at 61%. Besides, the Ratio IC50 in the series listed under Homo sapiens [2] amounted to 320. Moreover, the Stability in [3] stood at 71%. Also, the IC50 in series [4] was determined as 0.57 µM; in [6], 2.8 µM.

On to `CC(C)Nc1cc(Nc2ccc3ncsc3c2)ncc1C(=O)NCCc1ccc(S(N)(=O)=O)cc1`, for which the remaining at 10 min in series [1] is 38%. In the series filed under Homo sapiens [2], the Ratio IC50 is 280. Also, the IC50 at Cytochrome P450 3A4 was 0.9 µM; in [4], 1.2 µM; in [5] it was 0.0057 µM. Also, in series [3], the Stability is 17%. The Papp A→B in series [10] was less than 1.5 ×10⁻⁶ cm/s.

As to `CNC(=O)c1cnc(Nc2ccc3ncsc3c2)cc1NC(C)C`, the Ratio IC50 in the series filed under Homo sapiens [2] was found to be 28. Moreover, in series [10], the Papp A→B was 21 ×10⁻⁶ cm/s. Besides, the IC50 in [4] came out at 4.5 µM; in series [5] it was 0.021 µM.

Consider `CC(C)Nc1cc(Nc2ccc3ncsc3c2)ncc1C(=O)NCCC(C)(C)O`, for which the remaining at 10 min in [1] was 68%. For the same compound, the Ratio IC50 in the series listed under Homo sapiens [2] came out at 104. In addition, the Stability in [3] worked out at 79%. For the same compound, the IC50 in series [4] is 0.29 µM; in series [6], 1.1 µM.

As to `CC(C)Nc1cc(Nc2ccn3nccc3c2)ncc1C(=O)NC[C@@H](F)C(C)(C)O`, the remaining at 10 min in series [1] amounted to 85%. Moreover, the Ratio IC50 in the series filed under Homo sapiens [7] is 240; in the series filed under Homo sapiens [2], greater than 380. In series [3], the Stability is given as 78%. Further, the IC50 in series [4] came to 0.41 µM; in [6], 0.65 µM.

As to `CC(C)Nc1cc(Nc2ccc3nonc3c2)ncc1C(=O)NC[C@@H](F)C(C)(C)O`, the bioavailability in series [11] was 65%. Also, the remaining at 10 min in series [1] was found to be 89%. The Ratio IC50 in the series filed under Homo sapiens [7] was 420; in the series filed under Homo sapiens [2], 190. Further, the half-life in series [12] was 3.6 h. Further, the Stability in [3] is 93%. The same compound showed a Papp A→B in series [10] of 3.8 ×10⁻⁶ cm/s. In addition, the results for the IC50 in series [4], in series [5] and in series [6] were 0.64 µM, 0.0087 µM and 0.21 µM, respectively. For the same compound, the AUC at 24 h in series [13] was 4.6 µM·h; in series [16] it was 4.7 µM·h. In series [14], the Vd came out at 3.2 L/kg. Further, the clearance in series [15] is 14 mL/min/kg.

For the compound `CC(C)(O)[C@@H](F)CNC(=O)c1cnc(Nc2ccc3ncsc3c2)cc1NC1CC1`, the Ratio IC50 in the series listed under Homo sapiens [2] is 110. Also, in [4], the IC50 came out at 0.73 µM.

In the case of `CNC(=O)c1cnc(Nc2ccc3ncsc3c2)cc1N[C@H](CO)Cc1ccccc1`, the remaining at 10 min in [1] was 29%. In series [3], the Stability is given as 46%. This compound also had a Papp A→B in [10] of less than 1.5 ×10⁻⁶ cm/s.

Consider `CCNC(=O)c1cnc(Nc2ccc3ncsc3c2)cc1NC(C)C`, for which, in [1], the remaining at 10 min was found to be 45%. For the same compound, in series [3], the Stability was 74%. The IC50 in [5] amounted to 0.015 µM.
